Where two headings read alike, the source gives them in different places.
Key:
[1] = Adverse drug events attributable to acetaminophen in the study participants; type: in vivo, human; conditions: single 1 g iv dose, ICU patients
[2] = Acetaminophen pharmacokinetics after 1 g intravenous infusion (serum LC-MS/MS, noncompartmental analysis); type: in vivo, human
Procedure: Serum samples were collected every 30 min starting from the administration until 6 h after the treatment was initiated and immediately frozen at −80 °C until analysis. […] The protocol also included the collection of whole blood samples for genetic analyses.
The samples were mixed for 15 s and kept on ice for 20 min. Then, the samples were centrifuged for 10 min at 3000× g, at 4 °C. The supernatant (750 μL) was evaporated under a nitrogen stream. Then, the samples were resuspended in 40 μL of a mixture containing water ([…]), methanol (2.5%), and formic acid (0.1%). […] The column temperature was set at 20 °C. The flow rate was 0.2 mL/min, and the mobile phase consisted of the following gradient: Mobile phase A: 0.1% formic acid in water; Mobile phase B: 0.1 formic acid in methanol. The elution was started with a proportion of 97.5% A:2.5% B. A linear gradient increase from 2.5% to 65%B over 0.6 min was used, and then, the mobile phase reversed to initial conditions. The mass spectrometer was operated in positive electrospray ionization using multiple reaction monitoring (MRM). The source was set at 500 °C and 5.5 kV. […] Pharmacokinetic analyses were carried out by use of WinNonlin® V5.3 (Pharsight Corporation, St. Louis, MO, USA). The pharmacokinetic model chosen to calculate all parameters was noncompartmental with intravenous infusion. Untransformed data were used for all analyses.

[3] = cited from earlier work
[4] = UGT1A6*2/*2 diplotype vs UGT1A6*1/*1
[5] = UGT1A6*2/*4 diplotype vs UGT1A6*1/*1
[6] = concomitant drug therapy: Other (Inhibitors + Inducers) (n = 1), single patient, 1 g iv
[7] = human, serum, concomitant drug therapy: Other (Inhibitors + Inducers) (n = 1), single patient, 1 g iv

effect of UGT1A9 genotypes (UGT1A9*1/*3, *3/*3) on pharmacokinetics ([2]; 65 individuals without UGT1A6 variants, Supplementary Table S5): No major differences | pharmacokinetics in individuals who required on-demand opiates vs those who did not ([2]; Supplementary Table S6): No significant differences | increase in drug exposure (AUMC) [2, 4]: 66% | increase in t1/2 values [2, 4]: 38% | increase in drug exposure (AUMC) [2, 5]: 76% | increase in t1/2 values [2, 5]: 31% | K10 [2, 6]: 0.45; - 1/h | V (volume of distribution) [2, 6]: 299.16; - mg/(ug/mL) | Vss [2, 6]: 299.16; - mg/(ug/mL) | increase in t1/2 values ([2]; homozygous or double heterozygous for variant UGT1A6 alleles vs UGT1A6*1/*1): 22.5% | half-life ([2]; human, serum, intravenous, 1 g, whole study group, from less than 0.5 h up to more than 3.5 h, read-out: half-life (t1/2) values, range across individuals): 0.5 to 3.5 h | AUC(0-inf) [2, 7]: 7440 ng·h/mL | AUC(0-t) [2, 7]: 6660 ng·h/mL | C0 [2, 7]: 3340 ng/mL | MRT [2, 7]: 2.23 h | half-life ([2]; human, serum, concomitant drug therapy: Other (Inhibitors + Inducers) (n = 1), single patient, 1 g iv, read-out: t1/2 (converted)): 1.54 h
Compound: CC(=O)Nc1ccc(O)cc1 [Acetaminophen]
adverse drug events attributable to acetaminophen [1]: None of the participants developed adverse drug events | fraction of acetaminophen metabolized in vivo [3]: about 90% | acetaminophen glucuronides as share of the metabolites recovered in urine ([3]; urine): about half | acetaminophen glucuronides as share of the urine metabolites ([3]; urine): more than 50%

— article PMC9143054 (Journal of Personalized Medicine, 2022)
